Data from PMC3914206.

Molecular target: T1, panel of 442 kinases (Homo sapiens, UniProt O95382)
T1 construct: purchased KINOMEscan
T1 sequence (O95382 1-1288): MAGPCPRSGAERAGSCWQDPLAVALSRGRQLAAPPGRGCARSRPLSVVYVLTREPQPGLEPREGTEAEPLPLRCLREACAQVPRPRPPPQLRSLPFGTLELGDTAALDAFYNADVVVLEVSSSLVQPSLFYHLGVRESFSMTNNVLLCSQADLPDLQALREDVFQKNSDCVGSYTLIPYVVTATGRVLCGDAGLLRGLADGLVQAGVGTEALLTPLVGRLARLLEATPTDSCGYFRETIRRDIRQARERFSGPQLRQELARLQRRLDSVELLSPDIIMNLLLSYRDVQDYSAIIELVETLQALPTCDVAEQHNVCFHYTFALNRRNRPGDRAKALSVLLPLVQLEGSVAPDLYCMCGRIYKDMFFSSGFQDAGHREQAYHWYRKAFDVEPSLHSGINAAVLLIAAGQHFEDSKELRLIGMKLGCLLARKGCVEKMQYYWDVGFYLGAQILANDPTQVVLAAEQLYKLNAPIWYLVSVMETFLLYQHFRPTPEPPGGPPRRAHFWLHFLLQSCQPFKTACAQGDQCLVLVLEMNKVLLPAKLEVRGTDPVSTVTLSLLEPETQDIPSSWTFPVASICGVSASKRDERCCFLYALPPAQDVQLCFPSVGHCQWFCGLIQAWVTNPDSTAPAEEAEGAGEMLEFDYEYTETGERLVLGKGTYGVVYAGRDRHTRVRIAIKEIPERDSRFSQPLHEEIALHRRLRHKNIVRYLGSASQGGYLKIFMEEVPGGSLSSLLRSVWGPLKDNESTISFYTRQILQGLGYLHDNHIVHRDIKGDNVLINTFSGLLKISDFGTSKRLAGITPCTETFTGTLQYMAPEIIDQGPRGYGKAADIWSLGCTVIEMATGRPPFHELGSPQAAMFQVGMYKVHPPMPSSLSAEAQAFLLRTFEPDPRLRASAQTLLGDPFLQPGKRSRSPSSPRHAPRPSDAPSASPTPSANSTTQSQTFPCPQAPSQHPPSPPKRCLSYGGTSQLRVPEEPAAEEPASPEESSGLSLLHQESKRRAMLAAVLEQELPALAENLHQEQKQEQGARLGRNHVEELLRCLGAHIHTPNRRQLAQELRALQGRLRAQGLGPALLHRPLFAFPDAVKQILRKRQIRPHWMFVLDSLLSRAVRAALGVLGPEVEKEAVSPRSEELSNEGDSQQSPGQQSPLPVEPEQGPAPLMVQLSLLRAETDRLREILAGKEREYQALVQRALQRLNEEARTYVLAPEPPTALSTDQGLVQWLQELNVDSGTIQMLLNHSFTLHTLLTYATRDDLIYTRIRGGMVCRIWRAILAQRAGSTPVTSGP
Format: binding
Details: Compound Concentration 10 µM
Excerpt: We assessed the selectivity of members of this scaffold using the KINOMEscan methodology across a near comprehensive panel of 442 kinases [[18,27]].

**Q.** With CCOc1cc(C(=O)N2CCC(N3CCN(C)CC3)CC2)ccc1Nc1ncc2c(n1)N(C1CCCC1)c1ccccc1C(=O)N2C [Compound 26] as the molecule, how does the “KINOMEscan: ASK2” value read?
**A.** Its value is 100.

**Q.** Which “KINOMEscan: ASK2” value does the source give for COc1cc(C(=O)N2CCC(N3CCN(C)CC3)CC2)ccc1Nc1ncc2c(n1)N(C1CCCC1)c1ccccc1C(=O)N2C [Compound 25, 11-cyclopentyl-2-((2-methoxy-4-(4-(4-methylpiperazin-1-yl)piperidine-1-carbonyl)phenyl)amino)-5-methyl-5H-benzo[e]pyrimido[5,4-b][1,4]diazepin-6(11H)-one] here?
**A.** The value was 100.

**Q.** For COc1cc(C(=O)N2CCC(N3CCN(C)CC3)CC2)ccc1Nc1ncc2c(n1)N(C)c1ccccc1C(=O)N2C [15 (LRRK2-IN-1)], which “KINOMEscan: ASK2” value is on record?
**A.** The value was 100.
